# Assay results reported in patent US20050202515A1, “Functional method for generating or screening for ligands which modulate steroid hormone receptors” (Wyeth, priority 2004, published 2005).
# Ends that are not written are not given here.
# Tests used:
# Erk 1 and 2 = assay: Western blotting analysis of Erk 1 and 2 phosphorylation in UMR-106 cells; type: cell-based, rat
# Protocol: Western blotting analysis. […] After 48 h cells were treated with 10 nM 1,25(OH)2D3 for the indicated time. […] Cell debris were removed by centrifugation and equal amount of protein was run on SDS-PAGE. Separated proteins were transferred to nitrocellulose membrane and levels of MNAR, ERK, and p-ERK were determined by western blotting analysis.
# osteocalcin = assay: Quantitative PCR (TaqMan) analysis of osteocalcin in UMR-106 cells; type: cell-based, rat; details: 100 nM, 24 h
# Protocol: (§1) Quantitative PCR (TaqMan) analysis. […] Following transfection cells were cultured in media supplemented with 2% charcoal stripped FBS. 16 hours after the transfection cells were treated with 100 nM 1,25(OH)2 Vit.D3 for 24 or 48 hours. Cells were lysed and total RNA was isolated using RNeasy Kit (Quiagen). Quantitative PCR (TaqMan) was performed to determine osteocalcin levels in UMR-106 cells and alkaline phosphatase levels in ROS 17/2.8 cells.
# alkaline phosphatase = assay: Quantitative PCR (TaqMan) analysis of alkaline phosphatase in ROS 17/2.8 cells; type: cell-based, rat; details: overexpression of MNAR, 100 nM, 48 h
# Protocol: as §1
# PI3-K = PI3-K activity in p85 immunoprecipitates from MCF-7 cells; type: cell-based
# Protocol: Transfections and cell lysates preparation. […] Cell debris was removed by centrifugation.
# Immunoprecipitation and kinase assays.
# For PI3-K reaction, p85 was immunoprecipitated from cell lysates as described above. Kinase activity in the immunoprecipitate was detected using PI3-Kinase ELISA kit from Echelon Biosciences according to the manufacture's instructions. Briefly, reaction was run in 50 μl volume by adding 5 μl of 10× reaction buffer and 10 μl of PI(4,5)P2 substrate solution (10 μM) to the p85 immunoprecipitate. After the PI3-K reactions was complete, reaction products are first mixed and incubated with a PI(3,4,5)P3 detecting antibody, then added to the PI(3,4,5)P3-coated microplate for competitive binding. A peroxidase-linked secondary detection reagent and colorirnetric detection was used to detect PI(3,4,5)P3 detecting antibody binding to the plate. The colorimetric signal was inversely proportional to the amount of PI(3,4,5)P3 produced by PI 3-K activity.
# Akt [1] = assay: Akt kinase activity in immunoprecipitate (GSK-3 substrate) from MCF-7 cells; type: cell-based; details: MNAR overexpression, estradiol for 20 min
# Protocol: Transfections and cell lysates preparation. […] Cell debris was removed by centrifugation. […] Briefly, […] of GSK-3 fusion protein was added to the Akt-immunoprecipitate as a substrate. Kinase reaction was run in a reaction buffer supplied by the manufacturer. The level of p-GSK-3 produced in the kinase reaction was analyzed by western blotting analysis.
# Akt [2] = assay: Western blotting analysis of phosphorylated Akt in MCF-7 cells; type: cell-based
# Protocol: Transfections and cell lysates preparation. […] Cell debris was removed by centrifugation. […] Equal amount of protein from cell lysates was run on SDS-PAGE. Separated proteins were transferred to nitrocellulose membrane and levels of Akt and p-Akt were determined by western blotting analysis. Akt antibody was from Cell Signaling (anti-Akt cat#9272, anti-p-Akt cat# 9271).
# GST-VDR-LBD = molecular target: T1, GST-VDR-LBD (Homo sapiens, UniProt P11473); assay: ELISA-based VDR-MNAR interaction analysis; type: binding; details: GST-VDR-LBD preincubated with vehicle or 1 μM 1,25(OH)2D3; peptide 50 μM
# T1 construct: made in house; host or cells: E. coli BL-21
# T1 sequence (P11473 110-427): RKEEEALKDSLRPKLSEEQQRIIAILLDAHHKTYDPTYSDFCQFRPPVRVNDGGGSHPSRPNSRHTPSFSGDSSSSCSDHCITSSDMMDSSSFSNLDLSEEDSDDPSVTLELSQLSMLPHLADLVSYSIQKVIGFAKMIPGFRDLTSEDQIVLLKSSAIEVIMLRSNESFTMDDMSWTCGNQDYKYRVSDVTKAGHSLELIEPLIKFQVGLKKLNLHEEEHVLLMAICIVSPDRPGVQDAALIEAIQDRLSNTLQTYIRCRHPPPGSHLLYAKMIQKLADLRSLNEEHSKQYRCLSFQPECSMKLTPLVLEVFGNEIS
# Protocol: ELISA-based VDR-MNAR interaction analysis. A rapid, nonisotopic ELISA-type method was used for characterization of VDR-MNAR interactions. Biotinylated peptides corresponding to different MNAR's LXXLL motifs (designated 1-9, sequentially from the most N-terminal motif) were synthesized and immobilized on a Reacti-Bind™ NeutrAvidin™-coated microplate (Pierce Biotechnology, Rockford, Ill.). The microplate was washed twice with binding buffer (50 mM Tris-HCL, pH 8.0, 150 mM NaCl, 1 mM DTT, 1 mM EDTA, 0.01% NP-40, and 0.01% BSA). Peptides were diluted in 100 μl binding buffer to a final concentration of 50 μM and incubated with the Reacti-Bind™ NeutrAvidin™ coated microplate for 1 hour at room temperature, washed 4 times with the binding buffer. GST-VDR-LBD, preincubated with vehicle or 1 μM 1,25(OH)2D3, was allowed to interact with the immobilized peptide corresponding to one of each of the MNAR LXXLL motifs for 2 hours at room temperature. The plate was washed 4 times with binding buffer and incubated with anti-GST antibodies fused to HRP (Sigma, St. Louis, Mo.) for 1 h in binding buffer and washed 4 more times. SuperSignal® ELISA Pico Chemiluminescent Substrate (Pierce Biotechnology, Rockford, Ill.) was used to detect antigen/antibody complex, signal was read using a Wallac Victor2 1420 Multilabel Counter (PerkinElmer Lifesciences, Boston, Mass.).
# [3] = molecular target: T2, GST-VDR ligand binding domain fusion protein (Homo sapiens, UniProt P11473); assay: GST pull-down interaction analysis; details: 35S-radiolabeled full length MNAR; absence or presence of 100 nM 1,25(OH)2 Vit. D3
# T2 construct: made in house; host or cells: E. coli BL-21 (GST-VDR-LBD); Promega TNT Quick Coupled Transcription/Translation System (MNAR)
# Protocol: GST pull-down interaction analysis. A GST fusion to the ligand binding domain of VDR, amino acids 110-427, termed GST-VDR-LBD, was expressed in BL-21 cells and bound to glutathione-Sepharose 4B (Amersham Biosciences, Piscataway, NJ). Wild type MNAR was transcribed/translated and ^35S radiolabeled using Promega TNT Quick Coupled Transcription/Translation System (Madison, Wis.) and incubated for 1 hour at room temperature with GST-VDR-LBD fusion protein bound to glutathione-Sepharose 4B in the absence or presence of 100 nM 1,25(OH)2 Vit. D3 in binding buffer (50 mM Tris pH 8.0, 150 mM NaCl, 1 mM DTT, 1 mM PMSF, 1 mM EDTA, 0.05% NP-40, 1× Protease cocktail). Beads were then washed 4 times with the binding buffer and bound proteins were eluted by addition of SDS buffer and analyzed by SDS-PAGE and autoradiography.
# T2 sequence (Q8IZL8 whole entry E896G/T1069P partner, one chain of several, the tested form may be a part): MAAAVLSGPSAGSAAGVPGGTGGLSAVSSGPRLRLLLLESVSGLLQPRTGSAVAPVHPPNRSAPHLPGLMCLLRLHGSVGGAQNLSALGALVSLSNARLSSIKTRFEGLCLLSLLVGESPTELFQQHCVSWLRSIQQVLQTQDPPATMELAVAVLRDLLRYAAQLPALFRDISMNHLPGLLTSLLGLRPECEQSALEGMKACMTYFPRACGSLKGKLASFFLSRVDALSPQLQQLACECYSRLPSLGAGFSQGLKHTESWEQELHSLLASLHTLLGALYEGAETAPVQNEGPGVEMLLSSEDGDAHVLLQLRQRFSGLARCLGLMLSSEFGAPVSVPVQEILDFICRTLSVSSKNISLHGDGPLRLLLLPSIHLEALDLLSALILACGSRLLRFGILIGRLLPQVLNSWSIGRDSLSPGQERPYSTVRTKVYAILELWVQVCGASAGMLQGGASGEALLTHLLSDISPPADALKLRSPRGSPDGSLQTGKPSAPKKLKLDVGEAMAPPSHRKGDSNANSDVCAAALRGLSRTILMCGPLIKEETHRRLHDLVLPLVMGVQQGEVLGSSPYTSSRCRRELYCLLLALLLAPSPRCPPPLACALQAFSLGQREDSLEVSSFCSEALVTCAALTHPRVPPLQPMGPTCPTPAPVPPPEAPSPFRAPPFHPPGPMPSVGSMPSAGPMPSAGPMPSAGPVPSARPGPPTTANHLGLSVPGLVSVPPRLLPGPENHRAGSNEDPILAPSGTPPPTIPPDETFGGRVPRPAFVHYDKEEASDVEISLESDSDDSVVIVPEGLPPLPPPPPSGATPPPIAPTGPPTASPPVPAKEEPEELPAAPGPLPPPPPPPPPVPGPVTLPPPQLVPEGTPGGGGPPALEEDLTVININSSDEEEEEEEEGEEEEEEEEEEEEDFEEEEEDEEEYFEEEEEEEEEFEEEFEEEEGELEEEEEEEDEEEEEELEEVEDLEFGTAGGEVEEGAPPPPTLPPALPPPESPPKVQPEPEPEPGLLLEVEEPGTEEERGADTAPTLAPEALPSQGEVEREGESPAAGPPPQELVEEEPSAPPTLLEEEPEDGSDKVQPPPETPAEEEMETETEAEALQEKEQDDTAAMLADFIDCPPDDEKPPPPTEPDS
molecule,measurement,setting,value
"C=C1/C(=C\C=C2/CCC[C@]3(C)[C@@H]([C@H](C)CCCC(C)(C)O)CC[C@@H]23)C[C@@H](O)C[C@@H]1O [1,25(OH)2 Vit D3, 1,25 dihydroxy vitamin D3]",Erk phosphorylation,"Erk 1 and 2; MNAR overexpression, 10 nM",dramatic increase in Erk phosphorylation
same,levels of phosphorylated Erk 1 and 2,"Erk 1 and 2; absence of MNAR (control vector), 10 nM for 10 or 20 min",augmentation of the levels of phosphorylated Erk 1 and 2
same,"1,25(OH)2 Vit D3-stimulated levels of osteocalcin",osteocalcin; MNAR overexpression,strong potentiation
same,level of osteocalcin expression,osteocalcin; control plasmid,did not affect
same,induction of AP expression level,alkaline phosphatase,strongly enhanced
C[C@]12CC[C@@H]3c4ccc(O)cc4C[C@@H](CCCCCCCCC[S+]([O-])CCCC(F)(F)C(F)(F)F)[C@H]3[C@@H]1CC[C@@H]2O (stereo partly shown) [ICI 182 780],effect on estradiol activation of PI3-K activity,PI3-K; MCF-7 cells treated with 10 nM estradiol for 20 min,blocked
"C[C@]12CC[C@@H]3c4ccc(O)cc4CC[C@H]3[C@@H]1CC[C@@H]2O [estradiol, 17β-estradiol]",estrogen-dependant activation of PI3-K,"PI3-K; MCF-7 cells, MNAR overexpression, 10 nM estradiol for 20 min",increased
same,PI3-kinase activity,"PI3-K; MCF-7 cells, 10 nM for 20 min",stimulation of the PI3-kinase activity
same,estradiol induced Akt activation (GSK-3 phosphorylation),Akt [1],stimulates
same,phospho-Akt level,"Akt [2]; MCF-7 cells transfected with MNAR-expressing plasmid vs empty vector, 10 nM estradiol for 20 min",strong increase in phospho-Akt level
same,level of phospho-Akt,"Akt [2]; MCF-7 cells, 10 nM for 20 min",increased the level of phospho-Akt
"MNAR LXXLL motif #5: biotinylated peptide corresponding to the fifth LXXLL motif of MNAR, counted from the most N-terminal motif (LPGLLTSLL; also: biotinylated, site not given here)",VDR ligand binding domain interaction with immobilized MNAR LXXLL peptide,GST-VDR-LBD,ligand-dependently interacted
"MNAR: modulator of nongenomic activity of estrogen receptor, scaffold protein, GenBank AF547989",MNAR interaction with VDR-LBD,[3],directly interacts with VDR-LBD in a ligand-dependent manner
